Data taken from EP0933027A1, “Methods and compositions for protecting animals and humans against attack and infestation by arthropod and helminth parasites” (American Cyanamid Company, priority 1998, dated 1999).
Like-named read-outs stand apart in the source and are kept apart here.

Assays:
[1] = system: Dermacentor variabilis; experiment: Contact activity against larval American dog tick (coated vial)
Protocol: This test is designed to evaluate the contact activity of test compounds against the American dog tick. Test compounds are dissolved in 100% acetone to 1000, 300, 100, 10, 1 and 0.1 ppm. 100 µL of each of these dilutions is added to the bottom of a 20 mL glass scintillation vial with a pipettor. The vial is allowed to dry under a fume hood for 15 minutes. The vial is then turned in its side, and 250 µL of each dilution is applied to the sides of the vial. The vial is placed on a rolling machine and allowed to roll under the hood, coating the sides of the vial, until the acetone completely evaporates. The bottom of the vial measures 4.909 cm^2 and the sides measure 4.5 cm high x 8.8 cm around, so that the total coated area of the scintillation vial measures 44.51 cm^2. The amount of test compound applied by each dilution equals 7.86, 2.36, 0.79, 0.079, 0.0079 and 0.00079 µg/cm^2, respectively. Unfed larval dog ticks are counted into the scintillation vials with a slightly damp paintbrush. Ten ticks are placed in each vial. These tests are done in replicates of two or three so that there are 20 to 30 ticks per rate/compound. Mortality readings are taken 4 and 24 hours after placing the ticks in the vials. To read the test, the vial is placed under a magnifying glass and tapped gently. […] Percent mortality is then calculated for each treatment.

[2] = system: Pyrethroid-susceptible horn fly (Haematobia irritans); experiment: Treated filter paper test against adult pyrethroid-susceptible horn fly; conditions: corrected for control mortality
Protocol: (§1) Test doses are expressed as µg of test substance per cm^2 of filter paper. • 1) Prepare solutions of test compound in acetone such that 800 or 1000 µL contains the amount necessary to obtain the desired dose rate. • 2) Pipette 800 or 1000 µL of test solution onto filter paper. • 3) Filter papers are dried under a fume hood. • 4) When dry, filter papers are placed in the petri dish tops. Dishes are generally held about 24 hours before test organism is added. • 5) Two- to five-day-old horn flies (pyrethroid-susceptible or -resistant) which have had two or more blood meals are used in the assay. Flies are collected into a small vial from the holding cage. Vials are then chilled in a freezer for about 4 minutes to immobilize the flies. Immobilized flies are then distributed to petri dish bottoms, 12 to 25 flies per dish, then dishes are closed and inverted. • 6) As soon as the flies become mobile (about 5 minutes), they are examined to detect any flies that are dead or injured. This number is subtracted from total number of flies in the dish. • 7) Petri dishes are held at room temperature and examined at the desired time intervals which might be 10 minutes to 6 hours. • 8) All dead flies are recorded at each examination time. […] 10) Percent mortality at any time period is calculated using the following formula: (Number of dead flies - number dead @ 5 min)/(Total number of flies - number dead @ 5 min)x 100 [formula] Percent mortality is then corrected for control mortality using Abbot's formula.

[3] = system: Pyrethroid-resistant horn fly (Haematobia irritans); experiment: Treated filter paper test against adult pyrethroid-resistant horn fly; conditions: corrected for control mortality
Protocol: as §1

[4] = system: Ctenocephalides felis; experiment: Contact activity against adult cat flea, with and without piperonyl butoxide
Protocol: This test is designed to evaluate the contact activity of test compounds against the adult cat flea. Test compounds are dissolved in 100% acetone to 300, 100, 10 and 1 ppm. 100 µL of each of these dilutions is added to the bottom of a 20 mL glass scintillation vial with a pipettor. The vial is allowed to dry under a fume hood for 15 minutes. The bottom of the vial measures 4.909 cm^2. The amount of test compound applied by each dilution equals 6.2, 2.0, 0.2 and 0.02 µg/cm^2, respectively. Newly emerged adult cat fleas are anesthetized with CO2 to immobilize, and are counted into the scintillation vials with forceps. Five fleas are placed in each vial. These tests are done in replicates of two or three so that there are 10 to 15 fleas per rate/compound. Mortality readings are taken 4 and 24 hours after placing the fleas in the vials. […] Percent mortality is then calculated for each treatment.
This test evaluates the synergistic effect of piperonyl butoxide on the formula I compounds of this invention. Piperonyl butoxide (PBO) is added in an amount of 1.5% to a 1,000 ppm solution of a test compound in acetone. Dilutions are then made with acetone to provide solutions containing 300, 100, 10 and 1 ppm of the test compound and 0.45%, 0.15%, 0.015% and 0.0015% piperonyl butoxide, respectively. Solutions containing 1,000, 300, 100, 10 and 1 ppm of the test compound alone are used as the control. The evaluations are conducted according to the procedure described in Example 1.

[5] = system: ovine Trichstrongylus colubriformis larvae; experiment: Systemic activity against helminth larvae in infected Mongolian gerbils (medicated diet); assay type: in vivo; conditions: 500 ppm in feed; medicated diet for 3 days from ten days post infection; nematode burdens treated versus non-treated
Protocol: This test is designed to evaluate the systemic activity of test compounds against helminth parasites. Mongolian gerbils are infected orally with ovine Trichstrongylus colubrifomis larvae. Ten days post infection, the gerbils are treated with test compounds by diet incorporation. After feeding on the medicated diet for 3 days, the gerbils are sacrificed and gastrointestinal nematode populations are counted. Efficacy is determined by statistical analyses of treated versus non-treated nematode burdens.

[6] = 4 h, read-out: 4 Hour % Mortality
[7] = 24 h, read-out: 24 Hour % Mortality

F/C(=C\Cc1ccc(F)c(Oc2ccccc2)c1)C(c1ccc(Cl)cc1)C1CC1 (centres unmarked) [Compound 5, 1-[1-(p-Chlorophenyl)-2-fluoro-4-(4-fluoro-3-phenoxyphenyl)-2-butenyl]cyclopropane, (Z)-] was tested, and the mortality at 0.00079 µg/cm2 [1, 6] was 100%, the mortality at 0.0079 µg/cm2 [1, 6] was 100% and the mortality at 0.079 µg/cm2 [1, 6] was 100%. The mortality at 0.79 µg/cm2 [1, 6] was 100%, the mortality at 2.36 µg/cm2 [1, 6] was 100% and the mortality at 7.86 µg/cm2 [1, 6] was 100%. It also gave a mortality at 0.00079 µg/cm2 [1, 7] of 100%, a mortality at 0.0079 µg/cm2 [1, 7] of 100% and a mortality at 0.079 µg/cm2 [1, 7] of 100%. The mortality at 0.79 µg/cm2 [1, 7] was 100%, the mortality at 2.36 µg/cm2 [1, 7] was 100% and the mortality at 7.86 µg/cm2 [1, 7] was 100%. It also gave a mortality at 0.156 µg/cm2 ([2]; dose 0.1560 µg/cm^2, 6 hours) of 0%, a mortality at 0.3125 µg/cm2 ([2]; dose 0.3125 µg/cm^2, 6 hours) of 5% and a mortality at 0.625 µg/cm2 ([2]; dose 0.625 µg/cm^2, 6 hours) of 27%. It also gave a mortality at 1.25 µg/cm2 ([2]; dose 1.25 µg/cm^2, 6 hours) of 88%, a mortality at 2.5 µg/cm2 ([2]; dose 2.50 µg/cm^2, 6 hours) of 98% and a mortality at 5 µg/cm2 ([2]; dose 5.00 µg/cm^2, 6 hours) of 100%. It also gave a mortality at 1.25 µg/cm2 ([3]; dose 1.25 µg/cm^2, 6 hours) of 0%, a mortality at 2.5 µg/cm2 ([3]; dose 2.50 µg/cm^2, 6 hours) of 1% and a mortality at 5 µg/cm2 ([3]; dose 5.00 µg/cm^2, 6 hours) of 7%. It also gave a mortality at 10 µg/cm2 ([3]; dose 10.0 µg/cm^2, 6 hours) of 33%, a mortality at 20 µg/cm2 ([3]; dose 20.0 µg/cm^2, 6 hours) of 93% and a mortality at 0.02 µg/cm2 ([4]; 4 h, dose 0.02 µg/cm^2, 0.0 % PBO (test compound alone), 4 hours, read-out: 4 Hour % Mortality) of 0%. It also gave a mortality at 0.02 µg/cm2 ([4]; 4 h, dose 0.02 µg/cm^2, 0.0015 % PBO in composition, 4 hours, read-out: 4 Hour % Mortality) of 0%, a mortality at 0.2 µg/cm2 ([4]; 4 h, dose 0.2 µg/cm^2, 0.0 % PBO (test compound alone), 4 hours, read-out: 4 Hour % Mortality) of 20% and a mortality at 0.2 µg/cm2 ([4]; 4 h, dose 0.2 µg/cm^2, 0.015 % PBO in composition, 4 hours, read-out: 4 Hour % Mortality) of 40%. The mortality at 2 µg/cm2 ([4]; 4 h, dose 2.0 µg/cm^2, 0.0 % PBO (test compound alone), 4 hours, read-out: 4 Hour % Mortality) was 30%, the mortality at 2 µg/cm2 ([4]; 4 h, dose 2.0 µg/cm^2, 0.15 % PBO in composition, 4 hours, read-out: 4 Hour % Mortality) was 20% and the mortality at 6.2 µg/cm2 ([4]; 4 h, dose 6.2 µg/cm^2, 0.0 % PBO (test compound alone), 4 hours, read-out: 4 Hour % Mortality) was 30%. For the same compound, the mortality at 6.2 µg/cm2 ([4]; 4 h, dose 6.2 µg/cm^2, 0.45 % PBO in composition, 4 hours, read-out: 4 Hour % Mortality) was 20%, the mortality at 20 µg/cm2 ([4]; 4 h, dose 20.0 µg/cm^2, 0.0 % PBO (test compound alone), 4 hours, read-out: 4 Hour % Mortality) was 100% and the mortality at 20 µg/cm2 ([4]; 4 h, dose 20.0 µg/cm^2, 1.50 % PBO in composition, 4 hours, read-out: 4 Hour % Mortality) was 100%. For the same compound, the mortality at 0.02 µg/cm2 ([4]; 24 h, dose 0.02 µg/cm^2, 0.0 % PBO (test compound alone), 24 hours, read-out: 24 Hour % Mortality) was 10%, the mortality at 0.02 µg/cm2 ([4]; 24 h, dose 0.02 µg/cm^2, 0.0015 % PBO in composition, 24 hours, read-out: 24 Hour % Mortality) was 70% and the mortality at 0.2 µg/cm2 ([4]; 24 h, dose 0.2 µg/cm^2, 0.0 % PBO (test compound alone), 24 hours, read-out: 24 Hour % Mortality) was 20%. For the same compound, the mortality at 0.2 µg/cm2 ([4]; 24 h, dose 0.2 µg/cm^2, 0.015 % PBO in composition, 24 hours, read-out: 24 Hour % Mortality) was 100%, the mortality at 2 µg/cm2 ([4]; 24 h, dose 2.0 µg/cm^2, 0.0 % PBO (test compound alone), 24 hours, read-out: 24 Hour % Mortality) was 100% and the mortality at 2 µg/cm2 ([4]; 24 h, dose 2.0 µg/cm^2, 0.15 % PBO in composition, 24 hours, read-out: 24 Hour % Mortality) was 100%. For the same compound, the mortality at 6.2 µg/cm2 ([4]; 24 h, dose 6.2 µg/cm^2, 0.0 % PBO (test compound alone), 24 hours, read-out: 24 Hour % Mortality) was 100%, the mortality at 6.2 µg/cm2 ([4]; 24 h, dose 6.2 µg/cm^2, 0.45 % PBO in composition, 24 hours, read-out: 24 Hour % Mortality) was 100% and the mortality at 20 µg/cm2 ([4]; 24 h, dose 20.0 µg/cm^2, 0.0 % PBO (test compound alone), 24 hours, read-out: 24 Hour % Mortality) was 100%. For the same compound, the mortality at 20 µg/cm2 ([4]; 24 h, dose 20.0 µg/cm^2, 1.50 % PBO in composition, 24 hours, read-out: 24 Hour % Mortality) was 100% and the “% Efficacy” value [5] was 46%.
